Where a name gives a salt, the structure may show the parent alone. Read-outs that look alike come from different tables or passages of the source.

The assay deals with hTRPV3 (Homo sapiens (Human), UniProt Q8NET8). The assay is described as follows: Whole-cell patch clamp, hTRPV3 Phase 1 / Phase 2 currents. It is filed as cell-based. In outline:
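Whole-cell recordings on induced TRPV3 cells replated on coverslips, held at −40 mV with 400 ms ramps from −120 to +100 mV every 5 s; currents read at −80 and +80 mV. Ringer's external solution; current activated by heating to ≥28 °C or 20 μM 2-APB.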
(The patch-clamp technique gives a direct electrical read-out from membranes.)

Where [1] appears, read: Phase 1 current, inward, whole-cell patch clamp, read-out: hTRPV3 Patch P1 Inwd.
Where [2] appears, read: Phase 1 current, human TRPV3, read-out: hTRPV3 (nM) Phase 1.
The mark [3] stands for this setting: Phase 1 current, read-out: hTRPV3 (nM) (Phase 1).
The mark [4] stands for this setting: Phase 2 current, inward, whole-cell patch clamp, read-out: hTRPV3 Patch P2 Inwd.
[5] abbreviates: Phase 2 current, read-out: hTRPV3 (nM) (Phase 2).

hTRPV3, sequence (Q8NET8 whole entry): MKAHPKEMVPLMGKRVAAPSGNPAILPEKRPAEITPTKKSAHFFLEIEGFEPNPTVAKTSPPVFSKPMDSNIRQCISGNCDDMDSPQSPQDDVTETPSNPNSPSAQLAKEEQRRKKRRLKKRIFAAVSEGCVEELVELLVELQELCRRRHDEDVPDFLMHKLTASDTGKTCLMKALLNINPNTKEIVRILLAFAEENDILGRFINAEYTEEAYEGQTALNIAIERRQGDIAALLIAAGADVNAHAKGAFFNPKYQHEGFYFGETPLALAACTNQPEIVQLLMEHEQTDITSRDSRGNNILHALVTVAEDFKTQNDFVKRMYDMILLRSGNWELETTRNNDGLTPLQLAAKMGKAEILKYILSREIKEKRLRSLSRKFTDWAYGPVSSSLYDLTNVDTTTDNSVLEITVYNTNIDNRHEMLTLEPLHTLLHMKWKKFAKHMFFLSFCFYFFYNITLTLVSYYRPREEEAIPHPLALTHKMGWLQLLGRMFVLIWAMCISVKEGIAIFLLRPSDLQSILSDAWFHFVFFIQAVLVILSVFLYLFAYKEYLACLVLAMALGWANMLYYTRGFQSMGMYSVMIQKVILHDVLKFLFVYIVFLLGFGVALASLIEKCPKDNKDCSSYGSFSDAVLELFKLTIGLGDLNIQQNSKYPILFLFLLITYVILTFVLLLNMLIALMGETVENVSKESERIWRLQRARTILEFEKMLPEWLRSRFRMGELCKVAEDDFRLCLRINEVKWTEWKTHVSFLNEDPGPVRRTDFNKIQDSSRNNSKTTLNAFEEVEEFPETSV

On to `CC(C)NC(=O)c1ccccc1N1CC[C@H](Oc2ccc(C(F)(F)F)cn2)C1` [Compound 1-46, (S)—N-isopropyl-2-(3-(5-(trifluoromethyl)pyridin-2-yloxy)pyrrolidin-1-yl)benzamide], for which, under setting [1], the IC50 was above 1000 nM.

In the case of `Cc1cnc(C(=O)N2CCC(c3ccc(-c4ccccc4C4CC4)cc3CO)C2)cn1` (centres unmarked) [Compound 2-106, (3-(2′-cyclopropyl-3-(hydroxymethyl)biphenyl-4-yl)pyrrolidin-1-yl)(5-methylpyrazin-2-yl)methanone], the IC50 is 67 nM under setting [2] and 10 to 100 nM under setting [1].

With `CCc1ccccc1C(=O)c1ccc(N2CC[C@H](Nc3ncccc3Cl)C2)c(CCO)c1` [Compound 1-387, (S)-(4-(3-(3-chloropyridin-2-ylamino)pyrrolidin-1-yl)-3-(2-hydroxyethyl)phenyl)(2-ethylphenyl)methanone], the IC50 under setting [1] is above 1000 nM and the IC50 under setting [3] was found to be 1630 nM.

For the molecule `COCc1ccccc1-c1ccc(C2CCN(C(=O)c3ccc(F)cn3)C2)c(CO)c1` (centres unmarked) [Compound 2-61, (5-fluoropyridin-2-yl)(3-(3-(hydroxymethyl)-2′-(methoxymethyl)biphenyl-4-yl)pyrrolidin-1-yl)methanone], the IC50 is 153 nM under setting [2] and 100 to 1000 nM under setting [1].

`Cc1ccc(CN2CCC(c3ccc(Oc4ccccc4C(C)C)cc3CO)C2)nc1` (centres unmarked) [Compound 2-90, (5-(2-isopropylphenoxy)-2-(1-((5-methylpyridin-2-yl)methyl)pyrrolidin-3-yl)phenyl)methanol hydrochloride]: the IC50 under setting [2] came out at 812 nM and the IC50 under setting [1] lay within 100 to 1000 nM.

Take `NCc1ccccc1N1CC[C@@H](Oc2ccc(C(F)(F)F)cn2)C1` [Compound 1-20, (R)-(2-(3-(5-(trifluoromethyl)pyridin-2-yloxy)pyrrolidin-1-yl)phenyl)methanamine]: the IC50 is above 1000 nM under setting [1] and above 1000 nM under setting [4].

Regarding `O=C(c1ncccc1Cl)N1CCC(c2ccc(C(O)c3ccccc3Cl)cc2CO)C1` (centres unmarked) [Compound 2-11, (3-(4-((2-chlorophenyl)(hydroxy)methyl)-2-(hydroxymethyl)phenyl)pyrrolidin-1-yl)(3-chloropyridin-2-yl)methanone], the IC50 reads like this: under setting [2], above 3200 nM; under setting [1], above 1000 nM.

`NC(=O)c1cc(-c2ccccc2)cnc1N1CC[C@@H](Oc2ncccc2Cl)C1` [Compound 1-90, (R)-2-(3-(3-chloropyridin-2-yloxy)pyrrolidin-1-yl)-5-phenylnicotinamide]: the IC50 is, setting by setting: under setting [1], above 1000 nM; under setting [3], around 3000 nM; under setting [4], above 1000 nM; under setting [5], 1600 nM.

Take `Nc1cc(-c2ccccc2Cl)ccc1N1CC[C@@H](Oc2ccc(C(F)(F)F)cn2)C1` [Compound 1-116]: the “hTRPV3 (nM) (Phase 1)” value (Phase 1 current) is given as “Agonist/ Antagonist (Phase 1) Agonist/ Antagonist (Phase 2)”. In addition, the “hTRPV3 (nM) (Phase 2)” value (Phase 2 current) is listed as “Agonist/ Antagonist (Phase 1) Agonist/ Antagonist (Phase 2)”.

With `Cc1ccc(O[C@H]2CCN(c3ccc(Oc4ccccc4)nc3CO)C2)nc1` [Compound 1-211], the IC50 under setting [1] lay within 100 to 1000 nM, the IC50 under setting [3] amounted to 931 nM, the IC50 under setting [4] lay within 100 to 1000 nM and the IC50 under setting [5] was 936 nM.

For the molecule `O=C(NCCO)c1cc(-c2ccccc2Cl)ccc1N1CC[C@H](Oc2ccc(C(F)(F)F)cn2)C1` [Compound 1-156, (S)-2′-chloro-N-(2-hydroxyethyl)-4-(3-(5-(trifluoromethyl)pyridin-2-yloxy)pyrrolidin-1-yl)biphenyl-3-carboxamide], the IC50 was above 1000 nM under setting [1] and 3750 nM under setting [3].

`CC(C)c1ccccc1Oc1ccc(C2CCN(C(=O)c3ncccc3F)C2)c(C(N)=O)c1` (centres unmarked) [Compound 2-46, 2-(1-(3-fluoropicolinoyl)pyrrolidin-3-yl)-5-(2-isopropylphenoxy)benzamide]: the IC50 is around 2250 nM under setting [2] and above 1000 nM under setting [1].

Regarding `COc1ccnc(C(=O)N2CCC(c3ccc(-c4ccccc4C4CC4)cc3CO)C2)c1` (centres unmarked) [Compound 2-75, (3-(2′-cyclopropyl-3-(hydroxymethyl)biphenyl-4-yl)pyrrolidin-1-yl)(4-methoxypyridin-2-yl)methanone], the IC50 under setting [2] turned out to be 215 nM and the IC50 under setting [1] lay in the range of 100 to 1000 nM.

With `CCc1ccccc1-c1ccc(N2CC[C@H](Oc3ccc(F)cn3)C2)c(CO)n1` [Compound 1-208], the IC50 is, setting by setting: under setting [1], above 1000 nM; under setting [4], 100 to 1000 nM.

With `O=C(c1cocn1)N1CCC(c2ccc(-c3ccccc3C3CC3)cc2CO)C1` (centres unmarked) [Compound 2-121], the IC50 under setting [2] was found to be 61.2 nM.

As for `Cc1ccccc1-c1ccc(N2CC[C@H](Oc3ncccc3C)C2)c(CCO)c1` [Compound 1-198, (S)-2-(2′-methyl-4-(3-(3-methylpyridin-2-yloxy)pyrrolidin-1-yl)biphenyl-3-yl)ethanol], the IC50 was 100 to 1000 nM under setting [1] and 184 nM under setting [3].

For the molecule `COc1ccc(Oc2ccc(N3CC[C@H](Oc4ccccn4)C3)c(CO)c2)cc1` [Compound 1-302], the IC50 is, setting by setting: under setting [1], 100 to 1000 nM; under setting [3], 282 nM.

With `CCc1c(Oc2ccc(F)c(CO)c2)ncnc1N1CC[C@H](Oc2ncccc2Cl)C1` [Compound 1-359, (S)-(5-(6-(3-(3-chloropyridin-2-yloxy)pyrrolidin-1-yl)-5-ethylpyrimidin-4-yloxy)-2-fluorophenyl)methanol], the “hTRPV3 (nM) (Phase 1)” value (Phase 1 current) is recorded as “Agonist (Phase 1)”.

With `N#Cc1ccccc1N1CCC(Oc2ccc3ccccc3n2)C1=O` (centres unmarked) [Compound 1-103, 2-(2-oxo-3-(quinolin-2-yloxy)pyrrolidin-1-yl)benzonitrile], the IC50 is, setting by setting: under setting [1], above 1000 nM; under setting [3], above 3200 nM.

As for `Cc1cccc(C(=O)c2ccc(C3CCN(C(=O)c4ncccc4Cl)C3)c(CO)c2)c1` (centres unmarked) [Compound 2-9, (4-(1-(3-chloropicolinoyl)pyrrolidin-3-yl)-3-(hydroxymethyl)phenyl)(m-tolyl)methanone], the IC50 was above 3200 nM under setting [2] and above 1000 nM under setting [1].

Consider `O=C(c1ccc(C2CCN(C(=O)c3ncccc3Cl)C2)c(CO)c1)c1ccccc1Cl` (centres unmarked) [Compound 2-14, (3-(4-(2-chlorobenzoyl)-2-(hydroxymethyl)phenyl)pyrrolidin-1-yl)(3-chloropyridin-2-yl)methanone], for which the IC50 runs as follows: under setting [2], above 3200 nM; under setting [1], above 1000 nM.

`OCCc1cc(C(O)c2ccc(F)cc2)ccc1N1CC[C@H](Oc2ncccc2Cl)C1` (stereo partly drawn) [Compound 1-296, 2-(2-((S)-3-(3-chloropyridin-2-yloxy)pyrrolidin-1-yl)-5-((4-fluorophenyl)(hydroxy)methyl)phenyl)ethanol]: the IC50 is above 1000 nM under setting [1], 1070 nM under setting [3], above 1000 nM under setting [4] and 2160 nM under setting [5].

For `CC(=O)c1ccc(Oc2ccc(N3CC[C@H](Oc4ccccn4)C3)c(CO)c2)c(F)c1` [Compound 1-306], the IC50 runs as follows: under setting [1], 100 to 1000 nM; under setting [3], 982 nM; under setting [4], 100 to 1000 nM; under setting [5], 735 nM.

`NCc1cc(-c2ccccc2)ccc1N1CC[C@H](Oc2ccc(C(F)(F)F)cn2)C1` [Compound 1-119, (S)-(4-(3-(5-(trifluoromethyl)pyridin-2-yloxy)pyrrolidin-1-yl)biphenyl-3-yl)methanamine]: the IC50 is above 1000 nM under setting [4] and above 3200 nM under setting [5].

As for `OCc1cc(Oc2ccc(Cl)cc2)ccc1N1CC[C@H](Oc2ccccn2)C1` [Compound 1-283], the IC50 was 100 to 1000 nM under setting [1] and 283 nM under setting [3].

With `N#Cc1cc(Br)ccc1N1CC[C@H](Oc2ncccc2Cl)C1` [Compound 1-305], under setting [1], the IC50 is above 1000 nM.

The values are drawn from patent US12435061B2 (priority 2020, dated 2025).
